One data set concerns HeLa 229. The data set is described as follows: Antiproliferative activity against human HeLa 229 cells after 72 hrs by MTT assay. The data set is classed as functional, cell-based. Particulars: HeLa 229, 72 h. Background: Tetrazolium assays rely on reduction of a dye to a coloured formazan, in cell work by metabolically active cells.
Data set [1] concerns NCI-H460. The data set is described as follows: Antiproliferative activity against human NCI-H460 cells after 72 hrs by MTT assay. The data set is classed as functional, cell-based. The following applies: NCI-H460, 72 h.
In the next data set the test system is B16-F10. The data set is described as follows: Antiproliferative activity against mouse B16-F10 cells after 72 hrs by MTT assay. The data set is classed as functional, cell-based. The following applies: B16-F10, 72 h.
Data set [2] concerns HCT-116. The data set is described as follows: Antiproliferative activity against human HCT-116 cells after 72 hrs by MTT assay. Particulars: HCT-116, 72 h. The data set is classed as functional, cell-based.
For data set [3], the target named is T1, Fibroblast growth factor receptor 1 (Homo sapiens, UniProt P11362). Put plainly: Inhibition of FGFR1 (unknown origin) using ULight-JAK-1 (Tyr1023) peptide as substrate incubated for 90 mins at 10 uM and measured after 1 hr by LANCE Ultra TR-FRET assay relative to control. On the technique in general: TR-FRET usually uses a lanthanide donor and a delayed reading to cut background.
Target sequence in this assay (P11362 22-822 limits assumed): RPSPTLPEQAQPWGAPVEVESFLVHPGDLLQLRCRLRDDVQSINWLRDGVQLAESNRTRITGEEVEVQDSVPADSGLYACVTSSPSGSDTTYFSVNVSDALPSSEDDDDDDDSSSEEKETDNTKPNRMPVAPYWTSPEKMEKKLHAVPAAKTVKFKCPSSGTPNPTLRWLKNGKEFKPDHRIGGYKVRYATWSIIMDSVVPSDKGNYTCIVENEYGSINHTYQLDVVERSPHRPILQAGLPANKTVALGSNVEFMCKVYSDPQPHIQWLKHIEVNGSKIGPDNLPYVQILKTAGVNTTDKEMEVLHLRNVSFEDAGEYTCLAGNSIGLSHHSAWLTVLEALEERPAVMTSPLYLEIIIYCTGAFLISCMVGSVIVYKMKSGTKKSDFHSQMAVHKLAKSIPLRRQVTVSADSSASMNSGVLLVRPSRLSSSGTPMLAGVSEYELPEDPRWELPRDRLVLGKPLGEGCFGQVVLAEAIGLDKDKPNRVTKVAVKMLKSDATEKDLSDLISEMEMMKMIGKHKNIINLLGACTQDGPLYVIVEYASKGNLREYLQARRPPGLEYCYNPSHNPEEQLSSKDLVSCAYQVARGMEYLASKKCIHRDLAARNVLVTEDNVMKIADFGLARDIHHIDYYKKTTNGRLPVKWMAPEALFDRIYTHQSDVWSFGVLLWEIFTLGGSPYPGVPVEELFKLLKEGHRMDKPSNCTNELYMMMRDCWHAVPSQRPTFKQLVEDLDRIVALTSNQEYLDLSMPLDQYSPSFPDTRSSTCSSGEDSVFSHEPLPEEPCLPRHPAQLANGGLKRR

The next data set relates to L02. The data set is described as follows: Antiproliferative activity against human HL7702 cells after 72 hrs by MTT assay. The data set is classed as functional, cell-based. The following applies: L02, 72 h.
Data set [4] has as its target T1, Fibroblast growth factor receptor 1. The data set is described as follows: Inhibition of FGFR1 (unknown origin) using ULight-JAK-1 (Tyr1023) peptide as substrate incubated for 90 mins and measured after 1 hr by LANCE Ultra TR-FRET assay.
Target sequence in this assay (P11362 whole entry): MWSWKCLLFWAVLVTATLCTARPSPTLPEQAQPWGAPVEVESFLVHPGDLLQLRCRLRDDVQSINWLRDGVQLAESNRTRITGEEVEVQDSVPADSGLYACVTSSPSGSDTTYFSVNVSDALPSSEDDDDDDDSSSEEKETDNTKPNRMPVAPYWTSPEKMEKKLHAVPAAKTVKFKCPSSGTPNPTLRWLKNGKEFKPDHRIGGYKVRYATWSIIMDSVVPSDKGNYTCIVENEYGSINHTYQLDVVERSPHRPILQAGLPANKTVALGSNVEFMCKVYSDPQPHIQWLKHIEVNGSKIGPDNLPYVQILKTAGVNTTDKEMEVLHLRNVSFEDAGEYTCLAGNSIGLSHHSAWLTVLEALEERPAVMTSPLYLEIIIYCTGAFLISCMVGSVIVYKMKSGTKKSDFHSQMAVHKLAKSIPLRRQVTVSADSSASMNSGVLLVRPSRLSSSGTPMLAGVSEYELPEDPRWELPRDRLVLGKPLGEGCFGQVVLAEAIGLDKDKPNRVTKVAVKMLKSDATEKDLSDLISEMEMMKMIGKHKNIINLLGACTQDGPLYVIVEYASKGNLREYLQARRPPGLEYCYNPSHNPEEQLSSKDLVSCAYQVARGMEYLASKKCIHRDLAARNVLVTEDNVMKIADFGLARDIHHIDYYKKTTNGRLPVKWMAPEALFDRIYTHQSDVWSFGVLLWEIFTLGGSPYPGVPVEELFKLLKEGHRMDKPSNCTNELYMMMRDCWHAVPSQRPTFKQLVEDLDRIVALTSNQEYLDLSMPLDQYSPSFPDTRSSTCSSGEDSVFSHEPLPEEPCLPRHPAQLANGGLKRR
A further data set relates to Mus musculus. The data set is described as follows: Antiinflammatory activity against mouse assessed as reduction in carragenan-induced paw edema at 25 mg/kg,po treated 1 hr prior to carrageenan challenge. The data set is classed as functional. Set-up: scale not given: the % may be the effect or the level left.
A further data set deals with Rattus norvegicus. The data set is described as follows: Ulcerogenic activity in male albino rat assessed as ulceration at 25 mg/kg, po. The data set is classed as functional.
In the next data set the test system is RAW264.7. Put plainly: Anti-inflammatory activity in mouse RAW264.7 cells assessed as inhibition of LPS-induced NO production at 10 uM after 24 hrs by Griess reagent-based assay. The data set is classed as functional. More on the design: scale not given: the % may be the effect or the level left.
In a further data set the test system is CT26. The data set is described as follows: Antitumor activity against mouse CT26 cells xenografted in C57BL/6 mouse assessed as tumor suppression rate at 20 mg/kg, ip administered for 14 days. The data set is classed as functional. Particulars: time 14 day.
In data set [5] the test system is HCT-116. The data set is described as follows: Antiproliferative activity against human HCT-116 cells after 48 hrs by MTT assay. The data set is classed as functional, cell-based. Particulars: HCT-116, 48 h.
The target of data set [6] is Bromodomain-containing protein 4 (Homo sapiens, UniProt O60885). Put plainly: Inhibition of BRD4 (unknown origin) using histone-H4 as substrate incubated for 15 mins and measured after 1 hr by AlphaScreen assay. For orientation: Alpha assays give light when donor and acceptor beads are brought close together.
Data set [7] is filed under the species Homo sapiens. Put plainly: Binding affinity to Creatine kinase (CK) (unknown origin) relative to control.
Data set [8] in a line: Binding affinity to estrogen receptor (unknown origin). Set-up: species or system Homo sapiens.
The nature of data set [9]: Binding affinity to Creatine kinase (CK) (unknown origin). More on the design: species or system Homo sapiens.
Data set [10] in a line: Metabolic stability in rat liver microsomes assessed as half-life. The data set is classed as ADME, Microsome.
For data set [11], the species on record is Homo sapiens. Put plainly: Binding affinity to estrogen receptor (unknown origin) relative to control.
Data set [12] can be described thus: Aqueous solubility of the compound at pH 7.4. The data set is classed as physicochemical. The following applies: buffer.
The target in data set [13] is T2, Glutamate receptor ionotropic, kainate 1 (Homo sapiens, UniProt P39086). Put plainly: Binding affinity to GluK1 ligand binding domain (unknown origin).
In data set [14] the target is T3, Glutamate receptor ionotropic AMPA (Homo sapiens, UniProt P42261+P42262+P42263+P48058). The data set is described as follows: Displacement of [3H]AMPA from AMPA receptor (unknown origin). The data set is classed as protein-complex assay.
Data set [15] has as its target Glutamate receptor ionotropic, kainate 2 (Homo sapiens, UniProt Q13002). The data set is described as follows: Binding affinity to GluK2 receptor (unknown origin).
Data set [16] has as its target T2, Glutamate receptor ionotropic, kainate 1. Put plainly: Binding affinity to GluK1 receptor (unknown origin).
Data set [17] concerns the target T3, Glutamate receptor ionotropic AMPA. The data set is described as follows: Displacement of […] from AMPA receptor (unknown origin). The data set is classed as protein-complex assay.
The target is the same in data set [18]. Put plainly: Displacement of [3H]kainic acid from AMPA receptor (unknown origin). The data set is classed as protein-complex assay.
The target of the next data set is Glutamate receptor 2 (Homo sapiens, UniProt P42262). Put plainly: Binding affinity to GluA2 receptor (unknown origin).
Data set [19] is described as follows: Antiproliferative activity against human U-87 MG cells. The data set is classed as functional, cell-based, U-87MG ATCC.
For another data set, the system named is A549. Put plainly: Antiproliferative activity against human A549 cells. The data set is classed as functional, cell-based.
The target of data set [20] is Hepatocyte growth factor receptor (Homo sapiens, UniProt P08581). The data set is described as follows: Inhibition of c-MET (unknown origin).
Data set [21] concerns NCI-H460. The data set is described as follows: Antiproliferative activity against human NCI-H460 cells. The data set is classed as functional, cell-based.
For the next data set, the system named is HT-29. The data set is described as follows: Antiproliferative activity against human HT-29 cells. The data set is classed as functional, cell-based.
The target in data set [22] is Platelet-derived growth factor receptor beta (Homo sapiens, UniProt P09619). The data set is described as follows: Inhibition of PDGFR-beta (unknown origin).
A short description of data set [23]: Drug metabolism in human liver microsomes. The data set is classed as ADME, Microsome. Particulars: read-out: Drug metabolism.
Data set [24] has as its target Human immunodeficiency virus type 1 reverse transcriptase (Human immunodeficiency virus 1, UniProt Q72547). Put plainly: (§1) Inhibition of HIV1 reverse transcriptase.
In data set [25] the target is Human immunodeficiency virus type 1 reverse transcriptase (Human immunodeficiency virus 1) (UniProt Q72547). Described as §1.
A further data set deals with MV4-11. Put plainly: Antiproliferative activity against human MV4-11 cells. The data set is classed as functional, cell-based.
The subject of data set [26] is Staphylococcus aureus. The data set is described as follows: Antibacterial activity against methicillin-resistant Staphylococcus aureus. The data set is classed as functional.
Data set [27] relates to Staphylococcus aureus. The data set is described as follows: Antibacterial activity against methicillin-sensitive Staphylococcus aureus. The data set is classed as functional.
Data set [28] deals with 72 kDa type IV collagenase (Homo sapiens, UniProt P08253). The data set is described as follows: Inhibition of MMP-2 (unknown origin) using succinylated gelatin as substrate incubated for 30 mins and measured by gelatin zymography method.
Data set [29] deals with Amine oxidase [flavin-containing] B (Homo sapiens, UniProt P27338). The data set is described as follows: Inhibition of MAO-B (unknown origin).
Data set [30] concerns the target Amine oxidase [flavin-containing] A (Homo sapiens, UniProt P21397). The data set is described as follows: Inhibition of MAO-A (unknown origin).

pEC50, pIC50, pKi: −log10 of the molar value. Values after ≈ are worked out from the molar mass of the structure shown.

T2 sequence (P39086 whole entry, the tested form may be a part): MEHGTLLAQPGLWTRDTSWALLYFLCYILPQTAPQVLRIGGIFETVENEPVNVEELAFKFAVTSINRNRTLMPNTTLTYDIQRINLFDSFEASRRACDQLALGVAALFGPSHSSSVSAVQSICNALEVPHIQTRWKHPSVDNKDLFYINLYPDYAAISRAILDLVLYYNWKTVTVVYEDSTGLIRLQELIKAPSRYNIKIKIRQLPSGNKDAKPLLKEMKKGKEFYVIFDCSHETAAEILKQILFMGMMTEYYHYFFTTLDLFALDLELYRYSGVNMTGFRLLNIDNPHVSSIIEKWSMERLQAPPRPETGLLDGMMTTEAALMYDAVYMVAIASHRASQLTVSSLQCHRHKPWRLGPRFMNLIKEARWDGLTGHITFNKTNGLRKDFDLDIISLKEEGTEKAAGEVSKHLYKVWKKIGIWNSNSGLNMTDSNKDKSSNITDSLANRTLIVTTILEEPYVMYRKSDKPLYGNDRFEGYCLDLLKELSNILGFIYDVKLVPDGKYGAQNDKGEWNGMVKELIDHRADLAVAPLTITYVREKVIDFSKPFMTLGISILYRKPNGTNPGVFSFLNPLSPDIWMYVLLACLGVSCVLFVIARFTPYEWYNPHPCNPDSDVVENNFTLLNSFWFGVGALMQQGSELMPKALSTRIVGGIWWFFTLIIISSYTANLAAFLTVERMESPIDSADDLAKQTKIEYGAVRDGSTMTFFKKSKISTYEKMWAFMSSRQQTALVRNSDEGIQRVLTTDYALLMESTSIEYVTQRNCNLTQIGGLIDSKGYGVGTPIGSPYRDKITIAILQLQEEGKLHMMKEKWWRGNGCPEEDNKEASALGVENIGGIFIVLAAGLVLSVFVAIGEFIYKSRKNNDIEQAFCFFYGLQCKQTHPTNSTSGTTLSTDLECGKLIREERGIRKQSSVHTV
Amine oxidase [flavin-containing] A, sequence (P21397 whole entry): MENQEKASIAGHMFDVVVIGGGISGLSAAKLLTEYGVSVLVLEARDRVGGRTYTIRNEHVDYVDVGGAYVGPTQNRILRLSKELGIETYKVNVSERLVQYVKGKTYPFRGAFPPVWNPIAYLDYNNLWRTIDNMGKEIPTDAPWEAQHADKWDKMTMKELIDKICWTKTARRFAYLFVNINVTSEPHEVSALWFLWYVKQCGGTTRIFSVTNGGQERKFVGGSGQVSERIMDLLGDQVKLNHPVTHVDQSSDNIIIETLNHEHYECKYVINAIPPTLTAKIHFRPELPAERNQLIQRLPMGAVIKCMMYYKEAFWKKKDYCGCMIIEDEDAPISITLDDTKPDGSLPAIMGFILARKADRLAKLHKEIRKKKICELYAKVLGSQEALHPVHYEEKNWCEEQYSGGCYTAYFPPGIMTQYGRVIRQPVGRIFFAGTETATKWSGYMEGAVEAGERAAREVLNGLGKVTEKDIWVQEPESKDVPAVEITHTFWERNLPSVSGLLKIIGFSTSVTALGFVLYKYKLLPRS
Platelet-derived growth factor receptor beta, sequence (P09619 whole entry): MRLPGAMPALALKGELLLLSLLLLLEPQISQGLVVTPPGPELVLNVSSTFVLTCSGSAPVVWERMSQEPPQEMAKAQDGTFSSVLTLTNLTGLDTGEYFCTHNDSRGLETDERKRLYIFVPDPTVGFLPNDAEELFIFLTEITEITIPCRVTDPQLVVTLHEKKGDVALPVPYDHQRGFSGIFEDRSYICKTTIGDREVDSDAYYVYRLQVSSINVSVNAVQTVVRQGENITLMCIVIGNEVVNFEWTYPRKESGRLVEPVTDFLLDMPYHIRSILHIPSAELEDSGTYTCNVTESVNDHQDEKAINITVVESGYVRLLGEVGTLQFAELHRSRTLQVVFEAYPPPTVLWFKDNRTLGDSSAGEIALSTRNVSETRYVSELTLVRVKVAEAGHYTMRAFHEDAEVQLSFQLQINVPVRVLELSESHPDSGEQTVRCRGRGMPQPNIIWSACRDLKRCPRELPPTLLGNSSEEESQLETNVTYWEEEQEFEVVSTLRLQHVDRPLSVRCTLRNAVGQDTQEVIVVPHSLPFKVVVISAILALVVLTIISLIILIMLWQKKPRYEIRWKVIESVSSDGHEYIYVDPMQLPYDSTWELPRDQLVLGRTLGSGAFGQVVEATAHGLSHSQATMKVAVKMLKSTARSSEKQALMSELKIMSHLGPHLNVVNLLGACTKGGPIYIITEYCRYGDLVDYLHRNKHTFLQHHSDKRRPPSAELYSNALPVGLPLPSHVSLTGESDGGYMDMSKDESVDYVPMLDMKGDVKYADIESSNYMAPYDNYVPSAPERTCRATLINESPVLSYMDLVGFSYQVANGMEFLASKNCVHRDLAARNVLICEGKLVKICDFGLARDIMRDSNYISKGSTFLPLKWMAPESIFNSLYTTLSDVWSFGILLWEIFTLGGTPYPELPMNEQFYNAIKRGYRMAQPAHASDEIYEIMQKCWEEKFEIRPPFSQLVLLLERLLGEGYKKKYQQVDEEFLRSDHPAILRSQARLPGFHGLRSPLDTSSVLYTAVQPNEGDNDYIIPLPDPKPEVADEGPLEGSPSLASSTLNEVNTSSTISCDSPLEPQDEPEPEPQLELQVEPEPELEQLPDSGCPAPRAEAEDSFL
Glutamate receptor 2, sequence (P42262 whole entry): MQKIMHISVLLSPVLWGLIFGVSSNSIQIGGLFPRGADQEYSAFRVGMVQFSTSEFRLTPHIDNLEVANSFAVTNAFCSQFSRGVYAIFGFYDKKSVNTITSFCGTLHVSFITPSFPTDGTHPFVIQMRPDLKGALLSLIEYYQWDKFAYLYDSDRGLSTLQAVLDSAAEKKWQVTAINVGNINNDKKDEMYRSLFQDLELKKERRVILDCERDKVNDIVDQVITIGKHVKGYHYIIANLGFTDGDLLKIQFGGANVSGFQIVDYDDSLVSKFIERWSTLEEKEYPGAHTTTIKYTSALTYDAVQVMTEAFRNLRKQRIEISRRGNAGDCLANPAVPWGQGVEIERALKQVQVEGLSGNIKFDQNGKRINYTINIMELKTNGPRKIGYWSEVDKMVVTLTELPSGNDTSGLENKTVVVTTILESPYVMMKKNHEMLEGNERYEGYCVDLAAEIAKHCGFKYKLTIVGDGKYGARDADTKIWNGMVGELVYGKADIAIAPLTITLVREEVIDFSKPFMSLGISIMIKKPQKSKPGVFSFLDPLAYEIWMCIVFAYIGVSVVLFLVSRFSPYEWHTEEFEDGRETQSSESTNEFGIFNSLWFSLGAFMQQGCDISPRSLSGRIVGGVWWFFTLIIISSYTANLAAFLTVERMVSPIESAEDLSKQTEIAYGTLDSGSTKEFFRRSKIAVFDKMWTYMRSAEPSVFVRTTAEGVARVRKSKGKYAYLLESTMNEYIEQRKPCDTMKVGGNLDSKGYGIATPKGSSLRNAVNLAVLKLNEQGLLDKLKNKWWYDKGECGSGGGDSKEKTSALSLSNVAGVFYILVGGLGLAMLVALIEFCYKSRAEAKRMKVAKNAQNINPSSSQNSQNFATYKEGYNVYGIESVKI

Turning to `O=c1[nH]c2ccccc2nc1/C=C/c1ccccn1`, the pIC50 is 5.54 in the data set on HeLa 229; 6.34 in the data set with NCI-H460 [1]; 7.24 in the data set with B16-F10; 6.57 in the data set on HCT-116 [2]; < 4.00 with L02; 4.81 in data set [4]. In addition, the inhibition in [3] was 79.3%.

As to `Cc1cccc(Oc2nn3c(C(N)=O)nnc3c3ccccc23)c1`, the Activity with Mus musculus is 42.81%; in the data set on Rattus norvegicus, 20%; with RAW264.7, 10.31%.

For the molecule `Cc1noc(C)c1-c1ccc2c(c1)C(c1ccccc1)N(Cc1cn(CCOCCOCCOCCn3cc(CC4C(=O)N(C)c5ccc(-c6c(C)noc6C)cc5N4c4ccccc4)nn3)nn1)C(=O)N2C` (stereo not drawn), in the data set with CT26, the Activity amounted to 56.1%. For the same molecule, the negative-log IC50 (pIC50) was 6.79 in the data set on HCT-116 [5] and 8.11 in data set [6].

In the case of `CC[C@H]1C(=O)N(CC)c2ccc(F)cc2N1C(=O)c1ccc(O)cc1O`, the Activity in the data set filed under Homo sapiens [7] was 44%; in the data set filed under Homo sapiens [11], 92%. The same molecule had a pIC50 in data set [8] of 8.27. In data set [9], the pEC50 was 7.30. Moreover, in data set [10], the half-life is > 30 min. Besides, in data set [12], the solubility is > 100 µg/mL.

As to `N[C@@H](CCc1ccc2[nH]c(=O)c(=O)[nH]c2c1)C(=O)O`, the negative logarithm of the Ki (pKi) in data set [13] is 4.43; in data set [15], 5.02; in [16] it was 4.79; in data set [17], 4.11; on Glutamate receptor 2, 4.67. Also, the pIC50 in data set [14] was 4.59; in data set [18] it was 3.90.

`COc1cc2c(Oc3ccc(NC(=O)c4nc5ccccc5n(C5CCCCC5)c4=O)cc3F)ccnc2cc1OCCCN1CCOCC1`: the pIC50 in data set [19] was 6.09.

As to `O=C(Nc1ccc(Oc2ccnc(NC(=O)C3CC3)c2)cc1)c1nc2ccccc2n(-c2ccc(F)cc2)c1=O`, the pIC50 in the data set with A549 was 5.80; in [20] it was 8.72; with NCI-H460 [21], 6.03; in the data set with HT-29 it was 6.19.

On to `Cn1c(=O)c(/C=C/c2ccccn2)nc2ccccc21`, for which the pIC50 in the data set on HeLa 229 was 4.84; in the data set with NCI-H460 [1], 5.24; with B16-F10 it was 5.18; in the data set on HCT-116 [2], 5.12; in data set [22] it was < 4.05; with L02, 4.27. This molecule had a pIC50 in [4] of 4.57.

In the case of `O=c1c(-c2cccc([N+](=O)[O-])c2)nc2ccccc2n1Cc1ccccc1`, the metabolised in [23] was < 40%.

`CCOC(=O)N1c2ccccc2NC(=O)[C@]1(C#CC1CC1)C(F)(F)F`: in [24], the pIC50 was 7.35. In data set [25], this molecule came in with an IC90 of 4.8 nM.

For `CCC1C(=O)Nc2ccc(-c3c(C)noc3C)cc2N1Cc1ccccc1` (stereo not drawn), the pIC50 with MV4-11 was 6.60; in [6], 7.14.

Take `COc1ccc2ncc(=O)n(CC[C@H]3OC[C@H](NCc4cc5c(cn4)OCCC5)CO3)c2c1`: the minimal inhibitory concentration (MIC) was determined as 32 µg/mL (≈ 70.7 µM) in the data set with Staphylococcus aureus [26] and 8.16 µg/mL (≈ 18 µM) with Staphylococcus aureus [27].

With `Cc1ccc(NC(=O)C(Cc2ccccc2)NC(=O)Cn2c(=O)c(C)nc3ccccc32)cc1` (stereo not drawn), the pIC50 in [28] was 4.98.

Consider `C/C(=N\NC(=O)Cn1c(=O)c(Cc2ccccc2)nc2ccccc21)c1ccc(O)cc1`, for which the pIC50 is 3.01 in data set [29] and 8.80 in [30].

By pIC50 is commonly meant −log10 of the IC50, conventionally taken in molar units. One may read the inhibition as the change of the read-out against control, counted positive when it falls. As a reminder, the pEC50 is the EC50 on a negative log10 scale, so that one unit is a factor of ten. The half-life is how long it takes for the measured level to halve. What is called solubility is the dissolved amount per volume that the medium holds. In general, pKi refers to the Ki on a negative log10 scale, so that one unit is a factor of ten. The term IC90 denotes the concentration needed for an effect of 90%. For orientation: MIC means the least concentration at which growth counts as inhibited.

The values above are taken from ChEMBL document CHEMBL5113380, “Functionalized quinoxalinones as privileged structures with broad-ranging pharmacological activities” (Eur J Med Chem, 2022).
